Blank lines part the entries; values can stand above or below the compound they belong to. Activity calls are given as the source filed them. The rule behind the calls is not given here.
Assays:
[1] = target: Cyclin-dependent kinase 6 (Homo sapiens) (UniProt Q00534); assay: Inhibition of CDK6 (unknown origin) at 1 uM by LANCE Ultra TR-FRET assay relative to control
NCI-H2228 [2] = assay: Antiproliferative activity against human NCI-H2228 cells assessed as inhibition of cell growth pretreated with GSH followed by compound addition and incubated for 3 to 5 days by MTT assay; format: functional, cell-based
[3] = target: ALK tyrosine kinase receptor (Homo sapiens) (UniProt Q9UM73); assay: Inhibition of ALK (unknown origin) at 1 uM by LANCE Ultra TR-FRET assay relative to control
[4] = target: Cyclin-dependent kinase 4 (Homo sapiens) (UniProt P11802); assay: Inhibition of CDK4 (unknown origin) at 1 uM by LANCE Ultra TR-FRET assay relative to control
[5] = Cytotoxicity against human L02 cells assessed as inhibition of cell growth incubated for 3 to 5 days by MTT assay; format: toxicity, cell-based
NCI-H1299 [6] = assay: Antiproliferative activity against human NCI-H1299 cells assessed as inhibition of cell growth incubated for 3 to 5 days by MTT assay; format: functional, cell-based
NCI-H2228 [7] = assay: Antiproliferative activity against human NCI-H2228 cells assessed as inhibition of cell growth incubated for 3 to 5 days by MTT assay; format: functional, cell-based
[8] = Cytotoxicity against human L02 cells assessed as inhibition of cell growth pretreated with GSH followed by compound addition and incubated for 3 to 5 days by MTT assay; format: toxicity, cell-based
[9] = target: ALK tyrosine kinase receptor (Homo sapiens) (UniProt Q9UM73); assay: Inhibition of ALK (unknown origin) at 0.05 uM by LANCE Ultra TR-FRET assay relative to control
NCI-H3122 [10] = assay: Antiproliferative activity against human NCI-H3122 cells assessed as inhibition of cell growth incubated for 3 to 5 days by MTT assay; format: functional, cell-based
NCI-H3122 [11] = assay: Antiproliferative activity against human NCI-H3122 cells assessed as inhibition of cell growth pretreated with GSH followed by compound addition and incubated for 3 to 5 days by MTT assay; format: functional, cell-based
NCI-H1299 [12] = assay: Antiproliferative activity against human NCI-H1299 cells assessed as inhibition of cell growth pretreated with GSH followed by compound addition and incubated for 3 to 5 days by MTT assay; format: functional, cell-based
[13] = target: Cyclin-dependent kinase 6 (Homo sapiens) (UniProt Q00534); assay: Inhibition of CDK6 (unknown origin) at 0.05 uM by LANCE Ultra TR-FRET assay relative to control
[14] = target: Cyclin-dependent kinase 4 (Homo sapiens) (UniProt P11802); assay: Inhibition of CDK4 (unknown origin) at 0.05 uM by LANCE Ultra TR-FRET assay relative to control
[15] = target: T1, Protein cereblon/Cyclin-dependent kinase 6 (Homo sapiens) (UniProt Q00534+Q96SW2); assay: PROTAC activity at CRBN/CDK6 in human NCI-H3122 cells assessed as reduction in CDK6 protein level at 1 to 10 uM incubated for 24 hrs by Western blot analysis; format: cell-based; settings: dose 1-10 µM
NCI-H3122 [16] = assay: Induction of apoptosis in human NCI-H3122 cells assessed as early apoptotic cells at 2.5 uM incubated for 48 hrs by Annexin V-FITC/propidium iodide staining based flow cytometric analysis (reference value: 0.50%); format: functional
NCI-H3122 [17] = assay: Cell cycle arrest in human NCI-H3122 cells assessed as accumulation of cells at S phase at 2.5 uM incubated for 24 hrs by propidium iodide staining based flow cytometric analysis (reference value: 34.86%); format: functional
NCI-H3122 [18] = assay: Cell cycle arrest in human NCI-H3122 cells assessed as accumulation of cells at G0/G1 phase at 0.312 uM incubated for 24 hrs by propidium iodide staining based flow cytometric analysis (reference value: 45.91%); format: functional
NCI-H3122 [19] = assay: Induction of apoptosis in human NCI-H3122 cells assessed as viable cells at 1.25 uM incubated for 48 hrs by Annexin V-FITC/propidium iodide staining based flow cytometric analysis (reference value: 94.19%); format: functional; settings: read-out: Activity
NCI-H3122 [20] = assay: Cell cycle arrest in human NCI-H3122 cells assessed as accumulation of cells at G2/M phase at 1.25 uM incubated for 24 hrs by propidium iodide staining based flow cytometric analysis (reference value: 18.55%); format: functional
NCI-H3122 [21] = assay: Cell cycle arrest in human NCI-H3122 cells assessed as accumulation of cells at S phase at 1.25 uM incubated for 24 hrs by propidium iodide staining based flow cytometric analysis (reference value: 34.86%); format: functional
NCI-H3122 [22] = assay: Induction of apoptosis in human NCI-H3122 cells assessed as viable cells at 0.312 uM incubated for 48 hrs by Annexin V-FITC/propidium iodide staining based flow cytometric analysis (reference value: 94.19%); format: functional; settings: read-out: Activity
NCI-H3122 [23] = assay: Cell cycle arrest in human NCI-H3122 cells assessed as accumulation of cells at G2/M phase at 0.625 uM incubated for 24 hrs by propidium iodide staining based flow cytometric analysis (reference value: 18.55%); format: functional
NCI-H3122 [24] = assay: Induction of apoptosis in human NCI-H3122 cells assessed as early apoptotic cells at 0.625 uM incubated for 48 hrs by Annexin V-FITC/propidium iodide staining based flow cytometric analysis (reference value: 0.50%); format: functional
NCI-H3122 [25] = assay: Induction of apoptosis in human NCI-H3122 cells assessed as necrotic cells at 1.25 uM incubated for 48 hrs by Annexin V-FITC/propidium iodide staining based flow cytometric analysis (reference value: 3.53%); format: functional
NCI-H3122 [26] = assay: Induction of apoptosis in human NCI-H3122 cells assessed as late apoptotic cells at 0.312 uM incubated for 48 hrs by Annexin V-FITC/propidium iodide staining based flow cytometric analysis (reference value: 1.73%); format: functional
NCI-H3122 [27] = assay: Cell cycle arrest in human NCI-H3122 cells assessed as accumulation of cells at S phase at 0.625 uM incubated for 24 hrs by propidium iodide staining based flow cytometric analysis (reference value: 34.86%); format: functional
NCI-H3122 [28] = assay: Induction of apoptosis in human NCI-H3122 cells assessed as necrotic cells at 0.312 uM incubated for 48 hrs by Annexin V-FITC/propidium iodide staining based flow cytometric analysis (reference value: 3.53%); format: functional
NCI-H3122 [29] = assay: Cell cycle arrest in human NCI-H3122 cells assessed as accumulation of cells at G0/G1 phase at 2.5 uM incubated for 24 hrs by propidium iodide staining based flow cytometric analysis (reference value: 45.91%); format: functional
NCI-H3122 [30] = assay: Induction of apoptosis in human NCI-H3122 cells assessed as late apoptotic cells at 2.5 uM incubated for 48 hrs by Annexin V-FITC/propidium iodide staining based flow cytometric analysis (reference value: 1.73%); format: functional
NCI-H3122 [31] = assay: Induction of apoptosis in human NCI-H3122 cells assessed as necrotic cells at 0.625 uM incubated for 48 hrs by Annexin V-FITC/propidium iodide staining based flow cytometric analysis (reference value: 3.53%); format: functional
NCI-H3122 [32] = assay: Induction of apoptosis in human NCI-H3122 cells assessed as total apoptotic cells at 2.5 uM incubated for 48 hrs by Annexin V-FITC/propidium iodide staining based flow cytometric analysis relative to control; format: functional
NCI-H3122 [33] = assay: Cell cycle arrest in human NCI-H3122 cells assessed as accumulation of cells at S phase at 0.312 uM incubated for 24 hrs by propidium iodide staining based flow cytometric analysis (reference value: 34.86%); format: functional
NCI-H3122 [34] = assay: Cell cycle arrest in human NCI-H3122 cells assessed as accumulation of cells at G2/M phase at 2.5 uM incubated for 24 hrs by propidium iodide staining based flow cytometric analysis (reference value: 18.55%); format: functional
NCI-H3122 [35] = assay: Induction of apoptosis in human NCI-H3122 cells assessed as late apoptotic cells at 0.625 uM incubated for 48 hrs by Annexin V-FITC/propidium iodide staining based flow cytometric analysis (reference value: 1.73%); format: functional
[36] = target: T1, Protein cereblon/Cyclin-dependent kinase 6 (Homo sapiens); assay: PROTAC activity at CRBN/CDK6 in human NCI-H3122 cells assessed as reduction in CDK6 protein level at 1 uM incubated for 24 hrs by Western blot analysis; format: cell-based
NCI-H3122 [37] = assay: Induction of apoptosis in human NCI-H3122 cells assessed as early apoptotic cells at 0.312 uM incubated for 48 hrs by Annexin V-FITC/propidium iodide staining based flow cytometric analysis (reference value: 0.50%); format: functional
NCI-H3122 [38] = assay: Cell cycle arrest in human NCI-H3122 cells assessed as accumulation of cells at G2/M phase at 0.312 uM incubated for 24 hrs by propidium iodide staining based flow cytometric analysis (reference value: 18.55%); format: functional
NCI-H3122 [39] = assay: Induction of apoptosis in human NCI-H3122 cells assessed as necrotic cells at 2.5 uM incubated for 48 hrs by Annexin V-FITC/propidium iodide staining based flow cytometric analysis (reference value: 3.53%); format: functional
NCI-H3122 [40] = assay: Induction of apoptosis in human NCI-H3122 cells assessed as late apoptotic cells at 1.25 uM incubated for 48 hrs by Annexin V-FITC/propidium iodide staining based flow cytometric analysis (reference value: 1.73%); format: functional
NCI-H3122 [41] = assay: Induction of apoptosis in human NCI-H3122 cells assessed as viable cells at 2.5 uM incubated for 48 hrs by Annexin V-FITC/propidium iodide staining based flow cytometric analysis (reference value: 94.19%); format: functional; settings: read-out: Activity
NCI-H3122 [42] = assay: Induction of apoptosis in human NCI-H3122 cells assessed as early apoptotic cells at 1.25 uM incubated for 48 hrs by Annexin V-FITC/propidium iodide staining based flow cytometric analysis (reference value: 0.50%); format: functional
NCI-H3122 [43] = assay: Cell cycle arrest in human NCI-H3122 cells assessed as accumulation of cells at G0/G1 phase at 0.625 uM incubated for 24 hrs by propidium iodide staining based flow cytometric analysis (reference value: 45.91%); format: functional
NCI-H3122 [44] = assay: Cell cycle arrest in human NCI-H3122 cells assessed as accumulation of cells at G0/G1 phase at 1.25 uM incubated for 24 hrs by propidium iodide staining based flow cytometric analysis (reference value: 45.91%); format: functional
NCI-H3122 [45] = assay: Induction of apoptosis in human NCI-H3122 cells assessed as viable cells at 0.625 uM incubated for 48 hrs by Annexin V-FITC/propidium iodide staining based flow cytometric analysis (reference value: 94.19%); format: functional; settings: read-out: Activity

Cyclin-dependent kinase 4 (Homo sapiens), sequence (P11802 whole entry): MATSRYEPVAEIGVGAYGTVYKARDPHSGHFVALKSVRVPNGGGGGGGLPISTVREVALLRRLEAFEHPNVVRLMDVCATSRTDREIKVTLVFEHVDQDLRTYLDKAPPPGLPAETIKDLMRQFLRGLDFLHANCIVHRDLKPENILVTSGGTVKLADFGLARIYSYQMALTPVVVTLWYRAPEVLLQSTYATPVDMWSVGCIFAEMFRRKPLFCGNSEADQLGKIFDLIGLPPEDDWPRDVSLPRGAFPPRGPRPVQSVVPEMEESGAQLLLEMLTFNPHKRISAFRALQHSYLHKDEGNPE
T1 sequence (Q00534 whole entry, looked up): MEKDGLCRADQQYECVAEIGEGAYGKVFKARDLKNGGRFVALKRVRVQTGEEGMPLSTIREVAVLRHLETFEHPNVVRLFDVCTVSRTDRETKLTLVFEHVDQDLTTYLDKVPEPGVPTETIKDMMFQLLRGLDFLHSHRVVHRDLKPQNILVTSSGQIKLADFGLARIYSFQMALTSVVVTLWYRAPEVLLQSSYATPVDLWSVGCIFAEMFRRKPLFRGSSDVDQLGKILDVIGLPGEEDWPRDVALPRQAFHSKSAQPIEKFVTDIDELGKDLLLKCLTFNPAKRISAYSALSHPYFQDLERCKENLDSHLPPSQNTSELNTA
T1 sequence (Q96SW2 whole entry, looked up): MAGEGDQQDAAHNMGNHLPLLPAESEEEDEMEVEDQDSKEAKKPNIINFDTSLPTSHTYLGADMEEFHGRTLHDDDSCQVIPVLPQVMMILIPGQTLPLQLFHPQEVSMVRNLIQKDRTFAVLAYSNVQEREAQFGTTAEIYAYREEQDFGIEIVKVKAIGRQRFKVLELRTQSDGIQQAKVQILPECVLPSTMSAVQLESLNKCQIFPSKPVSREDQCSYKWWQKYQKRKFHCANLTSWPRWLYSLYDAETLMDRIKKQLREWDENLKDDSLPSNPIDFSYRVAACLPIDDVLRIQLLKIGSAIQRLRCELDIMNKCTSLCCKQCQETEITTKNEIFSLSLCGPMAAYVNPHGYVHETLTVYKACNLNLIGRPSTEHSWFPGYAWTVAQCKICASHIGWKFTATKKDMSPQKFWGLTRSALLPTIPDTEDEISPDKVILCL
Cyclin-dependent kinase 6 (Homo sapiens), sequence (Q00534 whole entry): as the sequence (Q00534 whole entry, looked up) above
ALK tyrosine kinase receptor (Homo sapiens), sequence (Q9UM73 19-1620 limits assumed): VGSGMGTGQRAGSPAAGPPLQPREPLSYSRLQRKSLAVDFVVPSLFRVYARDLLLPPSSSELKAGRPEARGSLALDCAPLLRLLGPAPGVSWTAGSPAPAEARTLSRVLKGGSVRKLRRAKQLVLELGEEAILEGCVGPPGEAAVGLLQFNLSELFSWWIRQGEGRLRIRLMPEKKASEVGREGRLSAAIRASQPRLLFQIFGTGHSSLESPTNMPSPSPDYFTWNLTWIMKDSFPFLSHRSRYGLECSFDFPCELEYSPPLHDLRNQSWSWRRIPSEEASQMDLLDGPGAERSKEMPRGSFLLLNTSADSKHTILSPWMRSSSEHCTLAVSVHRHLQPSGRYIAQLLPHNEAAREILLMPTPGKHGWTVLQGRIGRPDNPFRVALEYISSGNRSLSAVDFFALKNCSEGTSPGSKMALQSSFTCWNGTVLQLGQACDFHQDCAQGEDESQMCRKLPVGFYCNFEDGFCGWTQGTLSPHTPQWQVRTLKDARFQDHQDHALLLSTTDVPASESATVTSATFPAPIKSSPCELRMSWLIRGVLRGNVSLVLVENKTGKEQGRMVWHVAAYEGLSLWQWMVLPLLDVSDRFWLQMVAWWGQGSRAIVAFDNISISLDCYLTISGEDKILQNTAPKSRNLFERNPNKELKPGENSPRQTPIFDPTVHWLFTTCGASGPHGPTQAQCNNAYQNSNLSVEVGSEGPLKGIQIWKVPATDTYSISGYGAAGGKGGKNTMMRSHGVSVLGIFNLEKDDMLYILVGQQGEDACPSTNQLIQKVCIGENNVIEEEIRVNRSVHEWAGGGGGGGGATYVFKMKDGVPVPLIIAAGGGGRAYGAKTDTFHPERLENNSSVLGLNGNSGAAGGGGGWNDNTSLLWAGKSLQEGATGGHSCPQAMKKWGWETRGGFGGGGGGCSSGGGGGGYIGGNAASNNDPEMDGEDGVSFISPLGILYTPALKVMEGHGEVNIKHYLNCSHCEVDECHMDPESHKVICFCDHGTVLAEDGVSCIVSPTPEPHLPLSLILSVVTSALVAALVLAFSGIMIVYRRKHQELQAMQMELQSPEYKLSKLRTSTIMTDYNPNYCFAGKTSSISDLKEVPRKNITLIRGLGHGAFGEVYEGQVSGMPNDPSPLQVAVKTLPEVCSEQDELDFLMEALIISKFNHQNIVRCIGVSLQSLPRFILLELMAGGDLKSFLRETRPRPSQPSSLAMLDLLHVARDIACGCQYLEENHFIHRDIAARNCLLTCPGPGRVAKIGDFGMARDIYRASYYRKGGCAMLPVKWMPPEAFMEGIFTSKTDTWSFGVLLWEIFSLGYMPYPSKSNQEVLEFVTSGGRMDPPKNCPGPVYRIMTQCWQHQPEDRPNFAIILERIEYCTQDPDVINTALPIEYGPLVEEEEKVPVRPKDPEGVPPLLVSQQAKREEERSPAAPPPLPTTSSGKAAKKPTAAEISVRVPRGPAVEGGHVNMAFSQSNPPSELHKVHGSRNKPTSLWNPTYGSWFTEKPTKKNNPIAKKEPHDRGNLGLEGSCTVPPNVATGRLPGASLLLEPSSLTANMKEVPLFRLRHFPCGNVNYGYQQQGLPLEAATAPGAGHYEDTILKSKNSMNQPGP

- inhibition [1]: 97.3%
- IC50 (NCI-H2228 [2]): 8730 nM
- inhibition [3]: 66.8%
- inhibition [4]: 77.5%
- IC50 (NCI-H1299 [6]): 3290 nM
- IC50 (NCI-H2228 [7]): 13000 nM
- inhibition [9]: 18.3%
- IC50 (NCI-H3122 [10]): 1990 nM
- IC50 (NCI-H3122 [11]): 1060 nM
- IC50 (NCI-H1299 [12]): 4310 nM
- inhibition [13]: 92.7%
- inhibition [14]: 51.4%
- Activity [15]: inactive
SMILES: CC(=O)c1c(C)c2cnc(Nc3ccc(N4CCN(CC(=O)NCCSSCCN(CC(=O)Nc5cccc6c5C(=O)N(C5CCC(=O)NC5=O)C6=O)C(=O)CCCCC(=O)N5CCC(c6cc(OC(C)C)c(Nc7ncc(Cl)c(Nc8ccccc8S(=O)(=O)C(C)C)n7)cc6C)CC5)CC4)cn3)nc2n(C2CCCC2)c1=O (stereo not drawn)
- IC50 [5]: 45100 nM
- IC50 [8]: 18200 nM

- IC50 (NCI-H2228 [2]): 590 nM
- IC50 (NCI-H1299 [6]): 1740 nM
- IC50 (NCI-H2228 [7]): 580 nM
- IC50 (NCI-H3122 [10]): 60 nM
- Activity [36]: inactive
- IC50 (NCI-H3122 [11]): 60 nM
- IC50 (NCI-H1299 [12]): 1620 nM
SMILES: Cc1cc(Nc2ncc(Cl)c(Nc3ccccc3S(=O)(=O)C(C)C)n2)c(OC(C)C)cc1C1CCNCC1 [CERITINIB]
- Activity (NCI-H3122 [16]): 3.86%
- Activity (NCI-H3122 [17]): 14.93%
- Activity (NCI-H3122 [18]): 52.82%
- viability at 1.25 µM (NCI-H3122 [19]): 87.3%
- Activity (NCI-H3122 [20]): 28.18%
- Activity (NCI-H3122 [21]): 15.21%
- viability at 0.312 µM (NCI-H3122 [22]): 91.3%
- Activity (NCI-H3122 [23]): 27.27%
- Activity (NCI-H3122 [24]): 1.88%
- IC50 [5]: 3510 nM
- Activity (NCI-H3122 [25]): 4.45%
- Activity (NCI-H3122 [26]): 3.61%
- Activity (NCI-H3122 [27]): 14.15%
- Activity (NCI-H3122 [28]): 4.19%
- IC50 [8]: 1030 nM
- Activity (NCI-H3122 [29]): 60.69%
- Activity (NCI-H3122 [30]): 6.94%
- Activity (NCI-H3122 [31]): 4.19%
- Activity (NCI-H3122 [32]): 10.8%
- Activity (NCI-H3122 [33]): 12.62%
- Activity (NCI-H3122 [34]): 24.08%
- Activity (NCI-H3122 [35]): 5.87%
- Activity (NCI-H3122 [37]): 0.91%
- Activity (NCI-H3122 [38]): 33.92%
- Activity (NCI-H3122 [39]): 1.93%
- Activity (NCI-H3122 [40]): 6.24%
- viability at 2.5 µM (NCI-H3122 [41]): 87.4%
- Activity (NCI-H3122 [42]): 1.99%
- Activity (NCI-H3122 [43]): 57.79%
- Activity (NCI-H3122 [44]): 55.92%
- viability at 0.625 µM (NCI-H3122 [45]): 88.1%
